Measurements as given in US12398235B2, “Oligomeric epoxy pre-polymers comprising isosorbide units” (ROQUETTE FRERES, priority 2020, dated 2025).

Tested on: bacterial strain (mutant bacterial colonies)
Assay: Ames test of epoxy pre-polymers (mutagenic potential)
Type: cell-based
Conditions: number of mutant bacterial colonies from a given strain exposed to the compound, non-toxic at induction ratio of 2 or less
Description: In order to determine the mutagenic potential of the epoxy pre-polymers, an Ames test was carried out on different Mn and EEW epoxy resins. The results are expressed in induction levels, that is, the number of mutant bacterial colonies obtained from a given strain exposed to the compound. The resin is considered to be non-toxic in the case of an induction ratio of 2 or less.

Compound: C1OC1COC1COC2C(OCC3CO3)COC12 (stereo not shown) [IDGE 1* fraction, isosorbide diglycidylether]
- Induction ratio: 20.2
